Each structure is given as a SMILES string.

The target in data set [1] is T1, NAD-dependent protein deacetylase sirtuin-3, mitochondrial (Homo sapiens, UniProt Q9NTG7).
T1 sequence (Q9NTG7 whole entry): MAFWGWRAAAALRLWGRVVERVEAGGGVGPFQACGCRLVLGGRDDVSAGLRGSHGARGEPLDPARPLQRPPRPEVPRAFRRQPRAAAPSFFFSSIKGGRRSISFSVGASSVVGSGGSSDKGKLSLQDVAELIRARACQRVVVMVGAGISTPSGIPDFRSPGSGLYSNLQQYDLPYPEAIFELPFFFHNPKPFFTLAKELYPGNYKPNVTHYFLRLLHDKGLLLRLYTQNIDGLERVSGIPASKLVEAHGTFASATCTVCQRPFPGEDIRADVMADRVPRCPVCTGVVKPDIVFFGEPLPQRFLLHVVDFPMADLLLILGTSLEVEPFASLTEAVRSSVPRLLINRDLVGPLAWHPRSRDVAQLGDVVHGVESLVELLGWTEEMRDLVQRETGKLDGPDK
Nature of the data set: biochemical.
Description: Inhibition of catalytically active human SIRT3 (102 to 399 amino acids) expressed in Escherichia coli BL21 (DE3) cells using fluorogenic 7-amino-4-methylcoumarin (AMC)-labeled peptide by fluorescence assay

In data set [2] the target is T2, NAD-dependent protein deacetylase sirtuin-1 (Homo sapiens, UniProt Q96EB6).
T2 sequence (Q96EB6 whole entry): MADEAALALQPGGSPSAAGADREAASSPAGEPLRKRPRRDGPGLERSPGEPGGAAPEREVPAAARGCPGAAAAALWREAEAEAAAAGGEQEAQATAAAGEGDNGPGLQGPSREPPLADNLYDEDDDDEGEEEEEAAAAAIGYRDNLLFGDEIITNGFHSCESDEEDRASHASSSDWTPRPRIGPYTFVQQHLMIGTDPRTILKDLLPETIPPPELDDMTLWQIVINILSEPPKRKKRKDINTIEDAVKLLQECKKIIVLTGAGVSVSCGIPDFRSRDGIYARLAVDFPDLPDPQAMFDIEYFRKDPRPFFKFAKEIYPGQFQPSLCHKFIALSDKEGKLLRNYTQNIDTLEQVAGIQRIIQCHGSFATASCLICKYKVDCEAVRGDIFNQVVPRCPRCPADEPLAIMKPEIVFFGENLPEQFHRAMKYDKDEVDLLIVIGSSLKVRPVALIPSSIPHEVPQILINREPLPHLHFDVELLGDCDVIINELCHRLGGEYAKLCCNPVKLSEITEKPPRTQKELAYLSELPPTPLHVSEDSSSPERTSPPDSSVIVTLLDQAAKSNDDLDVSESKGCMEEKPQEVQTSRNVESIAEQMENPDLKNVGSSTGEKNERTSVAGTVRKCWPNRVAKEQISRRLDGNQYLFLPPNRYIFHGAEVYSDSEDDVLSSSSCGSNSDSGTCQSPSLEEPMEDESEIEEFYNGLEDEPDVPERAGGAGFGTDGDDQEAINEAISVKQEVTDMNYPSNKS
Put plainly: biochemical. The data set is classed as cell-based, BL21-DE3.
Description: Inhibition of full length human SIRT1 expressed in Escherichia coli BL21 (DE3) cells using fluorogenic 7-amino-4-methylcoumarin (AMC)-labeled peptide by fluorescence assay

In data set [3] the target is T3, NAD-dependent protein deacetylase sirtuin-2 (Homo sapiens, UniProt Q8IXJ6).
T3 sequence (Q8IXJ6 whole entry): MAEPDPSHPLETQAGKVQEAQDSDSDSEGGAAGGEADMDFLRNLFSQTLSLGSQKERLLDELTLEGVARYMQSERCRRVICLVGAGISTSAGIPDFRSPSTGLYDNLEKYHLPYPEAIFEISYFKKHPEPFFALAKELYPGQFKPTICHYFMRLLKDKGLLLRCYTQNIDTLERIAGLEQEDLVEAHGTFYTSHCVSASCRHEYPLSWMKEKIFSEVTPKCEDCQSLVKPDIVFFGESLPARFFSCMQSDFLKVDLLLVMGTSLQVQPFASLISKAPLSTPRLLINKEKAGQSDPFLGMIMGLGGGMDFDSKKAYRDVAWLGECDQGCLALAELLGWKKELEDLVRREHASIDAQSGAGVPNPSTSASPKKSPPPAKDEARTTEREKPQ
Nature of the data set: Inhibition of full length human SIRT2 expressed in Escherichia coli BL21 (DE3) cells using fluorogenic 7-amino-4-methylcoumarin (AMC)-labeled peptide by fluorescence assay.

The nature of data set [4]: Apparent permeability from basolateral to apical side in MDCK2 cells at 25 uM incubated for 15 to 180 mins by HPLC method. The following applies: dog, MDCK. It counts as ADME, cell-based, Canis lupus familiaris, MDCK-II.
Data set [5] in a line: Apparent permeability from apical to basolateral side in MDCK2 cells at 25 uM incubated for 15 to 180 mins by HPLC method. The following applies: dog, MDCK. The data set is classed as ADME, cell-based, Canis lupus familiaris, MDCK-II.
The test system of a further data set is MCF7. Nature of the data set: cells. The following applies: Homo sapiens, MCF7, 48 h.
A further data set deals with DU-145. Put plainly: cells. The following applies: Homo sapiens, DU-145, 48 h.
The next data set has as its system K562. Put plainly: cells. The following applies: Homo sapiens, K562, 48 h.

Description for DU-145: Cytotoxicity against human DU145 cells assessed as reduction in cell growth incubated for 48 hrs by alamar blue assay
Description for K562: Cytotoxicity against human K562 cells assessed as reduction in cell growth incubated for 48 hrs by alamar blue assay
Description for MCF7: Cytotoxicity against human MCF7 cells assessed as reduction in cell growth incubated for 48 hrs by alamar blue assay

For `NC(=O)c1cncc(Nc2cccc3ccccc23)c1`, the IC50 was determined as 9 µM in data set [1], 40.9 µM in data set [2] and 9.7 µM in data set [3].

`NC(=O)c1cncc(Oc2ccc3ccccc3c2)c1`: the concentration for half-maximal inhibition (IC50) is 2.14 µM in data set [1], 13.5 µM in data set [2] and 6.29 µM in data set [3].

For the compound `Cc1ccc(C(=O)Nc2cccc3cc(Oc4cncc(C(N)=O)c4)ccc23)cc1[N+](=O)[O-]`, the IC50 in data set [1] was found to be 4.37 µM; in data set [2], 0.788 µM; in data set [3], 0.869 µM.

With `Cc1ccc(C(=O)Nc2cccc3c(Oc4cncc(C(N)=O)c4)cccc23)cc1[N+](=O)[O-]`, the IC50 stood at 100 µM in data set [2] and 0.978 µM in data set [3].

On to `NC(=O)c1cncc(Oc2cccc3ccccc23)c1`, for which the values for the half-inhibitory concentration (IC50) in data set [2] and in data set [3] were 4.89 µM and 7.57 µM, respectively.

With `Cc1ccc(C(=O)Nc2cccc3cc(Oc4cncc(C(N)=O)c4)ccc23)cc1`, the IC50 in data set [2] is 3.82 µM; in data set [3], 0.489 µM.

For the compound `NC(=O)c1cncc(Oc2ccc3c(NC(=O)c4ccccc4)cccc3c2)c1`, the figures for the IC50 in data set [2] and in data set [3] were 22.4 µM and 0.436 µM, respectively.

Take `Cc1ccc(C(=O)Nc2cccc3c(Oc4cncc(C(N)=O)c4)cccc23)cc1`: the results for the IC50 in data set [2] and in data set [3] were 18.7 µM and 0.0774 µM, respectively.

On to `NC(=O)c1cncc(Oc2cccc3c(NC(=O)c4ccccc4)cccc23)c1`, for which, in data set [3], the half-maximal inhibitory concentration (IC50) came out at 0.0483 µM. In data set [4], the Papp B→A at 25 µM worked out at 43.5 nm/s. The Papp A→B at 25 µM in data set [5] was found to be 38.4 nm/s. In addition, the results for the CC50 with MCF7, in the data set with DU-145 and in the data set on K562 were 30.6 µM, 33.3 µM and 26.2 µM, respectively.

The term IC50 denotes the concentration that inhibits the measured activity by half. High values mean weaker potency, low ones greater potency. The term Papp B→A denotes the apparent permeability from the basolateral to the apical side of a cell layer. A word on the Papp A→B: it is the apparent permeability from the apical to the basolateral side of a cell layer. In general, CC50 refers to the concentration that lowers cell viability or growth by half.
